Measured values reported in ChEMBL document CHEMBL5608197, “Optimization of pyrazolopyridine 4-carboxamides with potent antimalarial activity for which resistance is associated with the P. falciparum transporter ABCI3” (Eur J Med Chem, 2024).
Values after ≈ are worked out from the molar mass of the structure shown. Active and inactive are the calls of the source. No cut-off for these calls is given here.

Legend:
[1] = system: Plasmodium falciparum; experiment: Antiplasmodial activity against multidrug-resistant Plasmodium falciparum Cam3.1 infected in erythrocytes assessed as inhibition of parasite growth incubated for 72 hrs by [3H]hypoxanthine incorporation based microbeta counting analysis; format: functional, organism-based; settings: Cam3.1, Erythrocyte
[2] = system: Plasmodium falciparum; experiment: Antiplasmodial activity against multidrug-resistant Plasmodium falciparum Dd2 harboring PI4K-S743F mutant infected in erythrocytes assessed as inhibition of parasite growth incubated for 72 hrs by [3H]hypoxanthine incorporation based microbeta counting analysis; format: functional, organism-based; settings: Dd2, Erythrocyte
[3] = Ratio of EC50 for antiplasmodial activity against ring stage of Plasmodium falciparum 3D7 expressing ABCI3-HAreg in absence of ABCI3 inhibitor, GlcN to EC50 for antiplasmodial activity against ring stage of Plasmodium falciparum 3D7 expressing ABCI3-HAreg in presence of ABCI3 inhibitor, GlcN; format: functional
[4] = Lipophilicity, elogD of the compound in 1-Octanol/PBS at pH 7.4 at 7.5 uM incubated for 2 hrs by miniaturized shake flask method; format: physicochemical
[5] = system: Plasmodium falciparum; experiment: Antiplasmodial activity against multidrug-resistant Plasmodium falciparum Dd2 harboring cyt b-I22L mutant infected in erythrocytes assessed as inhibition of parasite growth incubated for 72 hrs by [3H]hypoxanthine incorporation based microbeta counting analysis; format: functional, organism-based; settings: Dd2, Erythrocyte
[6] = Aqueous solubility of the compound in PBS buffer at pH 7.4 at 200 uM incubated for 2 hrs under shaking condition by miniaturized shake flask method; format: physicochemical
[7] = system: Plasmodium falciparum; experiment: Antiplasmodial activity against ring stage of Plasmodium falciparum 3D7 expressing ABCI3-HAreg assessed as inhibition of parasite proliferation incubated for 72 hrs in absence of ABCI3 inhibitor, GlcN by SYBR dye based flow cytometry; format: functional, organism-based; settings: 3D7, 72 h
[8] = Intrinsic clearance in human liver microsomes at 1 uM measured for 60 mins by LC-MS/MS analysis; format: ADME, Microsome; settings: read-out: CLH
[9] = system: Plasmodium falciparum; experiment: Antimalarial activity against asexual stage of Plasmodium falciparum 3D7 infected in erythrocytes assessed as parasite killing at 10XEC50 incubated for 48 hrs with compound renewal for every 24 hrs followed by drug removal and incubation for 48 hrs with CFDA-SE labelled fresh erythrocytes by Hoechst 33342 staining based two-color flow cytometry; format: functional, organism-based; settings: Erythrocyte
[10] = Cytotoxicity against human HepG2 cells assessed as inhibition of cell growth incubated for 48 hrs by CellTiter-Glo luminescence assay; format: toxicity, cell-based
[11] = system: Plasmodium falciparum; experiment: Antiplasmodial activity against asexual blood stage of Plasmodium falciparum 3D7 assessed as inhibition of parasite growth incubated for 72 hrs by LDH assay; format: functional, organism-based; settings: 3D7, 72 h
[12] = system: Plasmodium falciparum; experiment: Antiplasmodial activity against multidrig-resistant Plasmodium falciparum Dd2 harboring eEF2Y-I86N mutant infected in erythrocytes assessed as inhibition of parasite growth incubated for 72 hrs by [3H]hypoxanthine incorporation based microbeta counting analysis; format: functional, organism-based; settings: Dd2, Erythrocyte
[13] = system: Plasmodium falciparum; experiment: Antiplasmodial activity against Plasmodium falciparum Dd2 infected in erythrocytes assessed as inhibition of parasite growth incubated for 72 hrs by [3H]hypoxanthine incorporation based microbeta counting analysis; format: functional, organism-based; settings: Dd2, Erythrocyte
[14] = system: Plasmodium falciparum; experiment: Antiplasmodial activity against multidrug-resistant Plasmodium falciparum Dd2 harboring CARL-I1139K mutant infected in erythrocytes assessed as inhibition of parasite growth incubated for 72 hrs by [3H]hypoxanthine incorporation based microbeta counting analysis; format: functional, organism-based; settings: Dd2, Erythrocyte
[15] = system: Plasmodium falciparum; experiment: Antiplasmodial activity against multidrug-resistant Plasmodium falciparum NF54 infected in erythrocytes assessed as inhibition of parasite growth incubated for 72 hrs by [3H]hypoxanthine incorporation based microbeta counting analysis; format: functional, organism-based; settings: NF54, Erythrocyte
[16] = system: Plasmodium falciparum; experiment: Antiplasmodial activity against multidrug-resistant Plasmodium falciparum Dd2 harboring DHODH-C276F mutant infected in erythrocytes assessed as inhibition of parasite growth incubated for 72 hrs by [3H]hypoxanthine incorporation based microbeta counting analysis; format: functional, organism-based; settings: Dd2, Erythrocyte
[17] = system: Plasmodium falciparum; experiment: Antimalarial activity against asexual stage of Plasmodium falciparum 3D7 infected in erythrocytes assessed as lag phase of parasite growth at 10XEC50 incubated for 24 hrs followed by drug removal and incubation for 48 hrs with CFDA-SE labelled fresh erythrocytes by Hoechst 33342 staining based two-color flow cytometry; format: functional, organism-based; settings: Erythrocyte
[18] = system: Plasmodium falciparum; experiment: Antiplasmodial activity against multidrug-resistant Plasmodium falciparum K1 infected in erythrocytes assessed as inhibition of parasite growth incubated for 72 hrs by [3H]hypoxanthine incorporation based microbeta counting analysis; format: functional, organism-based; settings: K1, Erythrocyte
[19] = system: Plasmodium falciparum; experiment: Antiplasmodial activity against multidrug-resistant Plasmodium falciparum 7G8 infected in erythrocytes assessed as inhibition of parasite growth incubated for 72 hrs by [3H]hypoxanthine incorporation based microbeta counting analysis; format: functional, organism-based; settings: 7G8, Erythrocyte
[20] = Intrinsic clearance in rat hepatocytes at 1 uM measured per million cells for 90 mins by LC-MS/MS analysis; format: ADME, cell-based, Hepatocyte; settings: read-out: CLH
[21] = system: Plasmodium falciparum; experiment: Antiplasmodial activity against multidrug-resistant Plasmodium falciparum TM90-C2B infected in erythrocytes assessed as inhibition of parasite growth incubated for 72 hrs by [3H]hypoxanthine incorporation based microbeta counting analysis; format: functional, organism-based; settings: Erythrocyte
[22] = system: Plasmodium falciparum; experiment: Antiplasmodial activity against ring stage of Plasmodium falciparum 3D7 expressing ABCI3-HAreg assessed as inhibition of parasite proliferation incubated for 72 hrs in presence of ABCI3 inhibitor, GlcN by SYBR dye based flow cytometry; format: functional, organism-based; settings: 3D7, 72 h
[23] = system: Plasmodium berghei; experiment: Antimalarial activity against asexual blood stage of Plasmodium berghei ANKA infected in Balb/c mouse assessed as reduction in parasitemia at 25 mg/kg, po qd administered at 2 hrs post-infection on day 0 and then on days 1,2 and 3 post-infection and measured on day 2 to 4 post-infection; format: functional, organism-based; settings: time 3-5 day
[24] = Toxicity in Balb/c mouse infected with asexual blood stage of Plasmodium berghei ANKA assessed as body weight at 25 mg/kg, po qd administered at 2 hrs post-infection on day 0 and then on days 1,2 and 3; format: organism-based; settings: in vivo, 96 h, time 4 day
[25] = Intrinsic clearance in mouse liver microsomes at 1 uM measured for 60 mins by LC-MS/MS analysis; format: ADME, Microsome; settings: read-out: CLH
[26] = Toxicity in Balb/c mouse infected with asexual blood stage of Plasmodium berghei ANKA assessed as adverse effects at 25 mg/kg, po administered at 2 hrs post-infection on day 0 and then on days 1,2 and 3; format: organism-based; settings: in vivo, 96 h, time 4 day
[27] = system: Plasmodium berghei; experiment: (§1) Antimalarial activity against asexual blood stage of Plasmodium berghei ANKA infected in Balb/c mouse assessed as reduction in parasitemia at 25 mg/kg, po qd administered at 2 hrs post-infection on day 0 and then on days 1,2 and 3 post-infection and measured on day 5 to 7 post-infection by peter's test relative to control; format: functional; settings: time 6-8 day
[28] = system: Plasmodium berghei; experiment: as §1, with “30” for “25”, “4” for “5”, “test” for “test relative to control”; format: functional, organism-based; settings: time 5-8 day
[29] = system: Plasmodium berghei; experiment: Antimalarial activity against asexual blood stage of Plasmodium berghei ANKA infected in Balb/c mouse assessed as reduction in parasitemia at 30 mg/kg, po qd administered at 2 hrs post-infection on day 0 and then on days 1,2 and 3 post-infection and measured on day 2 to 4 post-infection; format: functional, organism-based; settings: time 3-5 day

For `Cc1nn(C(C)(C)C)c2nc(C3CC3)cc(C(=O)N3CCOc4ccccc43)c12`, the EC50 [1] was 89 nM, the EC50 [2] was 101 nM and the “Ratio EC50” value [3] was 3.4. The logD at 2 h, 7.5 µM [4] was 5.4, the EC50 [5] was 91 nM and the solubility thermodynamic at 2 h, 200 µM [6] was less than 2.5 µM. For the same molecule, the EC50 [7] was 47.6 nM, the microsomal CLint at 1 µM [8] was 206 µL/min/mg and the Activity [9] was “Active”. For the same molecule, the CC50 at 48 h [10] was greater than 40000 nM, the EC50 [11] was 130 nM and the EC50 [12] was 104 nM. For the same molecule, the EC50 [13] was 88 nM, the EC50 [14] was 79 nM and the EC50 [15] was 46 nM. The EC50 [16] was 105 nM, the Activity [17] was “Active” and the EC50 [18] was 134 nM. For the same molecule, the EC50 [19] was 114 nM, the hepatocyte CLint at 1 µM [20] was 49 µL/min/1e6 cells and the EC50 [21] was 119 nM. For the same molecule, the EC50 [22] was 13.9 nM.
With `Cc1nn(C(C)C)c2nc(C3CC3)cc(C(=O)N3CCOc4ccncc43)c12` the Activity [23] was “inactive”, the logD at 2 h, 7.5 µM [4] was 4.5 and the solubility thermodynamic at 2 h, 200 µM [6] was 199 µM (≈ 75.1 µg/mL). It also gave a microsomal CLint at 1 µM [8] of 27 µL/min/mg, a CC50 at 48 h [10] of 17600 nM and an EC50 [11] of 19 nM. The Activity [24] was “Non-Toxic”, the microsomal CLint at 1 µM [25] was 323 µL/min/mg and the Activity [26] was “Non-Toxic”. It also gave a hepatocyte CLint at 1 µM [20] of 30 µL/min/1e6 cells and an inhibition in vivo at 25 mg/kg [27] of roughly 50%.
For `C[C@H]1[C@H](OC(=O)CCC(=O)O)O[C@@H]2O[C@@]3(C)CC[C@H]4[C@H](C)CC[C@@H]1[C@@]24OO3`, the Activity [28] was “inactive” and the Activity [29] was “Active”.
